# Like-named read-outs stand apart in the source and are kept apart here.
# What was measured:
# Type in all cases: cell-based
# [1] = tested on: T. mentagrohytes; experiment: MIC distribution, serial dilutions in Sabouraud gentamycin broth, microplates; details: # of strains = 17
# Method: (§1) The antifungal activity of 1-[(2-fluorophenyl)(4-fluorophenyl)phenylmethyl]-1H-imidazole and bifonazole was determined by serial dilutions in Sabouraud gentamycin broth using microplates. The antifungal agent was diluted in 50% ethanol to obtain concentrations between 40 and 0.015 mcg/ml. Inoculum was 10^7 cfu/ml for yeast and 10^6 cfu/ml for dermatophytes. Incubation was allowed at 37° C. during 2 days for yeasts, and at 29° C. during 7 days for dermatophytes. MIC's were determined as in example 18. The MIC distributions obtained in 9 organisms are shown in the next tables.
# [2] = tested on: M. canis; experiment: as above; details: # of strains = 13
# Method: as §1
# [3] = tested on: T. rubrum; experiment: as above; details: # of strains = 6
# Method: as §1
# [4] = tested on: C. guilliermondii; experiment: as above; details: # of strains = 5
# Method: as §1
# [5] = tested on: C. krusei; experiment: as above; details: # of strains = 5
# Method: as §1
# [6] = tested on: C. albicans; experiment: as above; details: # of strains = 50
# Method: as §1
# [7] = tested on: T. glabrata; experiment: as above; details: # of strains = 10 = UR-4056/15 Bifonzaole
# Method: as §1
# [8] = tested on: C. tropicalis; experiment: as above; details: # of strains = 30
# Method: as §1
# [9] = tested on: C. parapsilosis; experiment: as above; details: # of strains 10 = UR-4056/14 = Bifonazole
# Method: as §1
# [10] = tested on: T. glabrata (clinica); experiment: In vitro antifungal activity (MIC), agar dilution; details: Nakaseomyces glabratus, read-out: MIC
# Method: (§2) The antifungal activity of 1-[(2-fluorophenyl)(4-fluorophenyl)phenylmethyl]-1H-imidazole was shown by its ability to inhibit the growth of different species of yeast and filamentous fungi in vitro. The activity was recorded as the MIC value, that is, the minimum amount of product needed to achieve the complete inhibition of the in vitro growth of the test organism. Testing was performed as follows: a solution of the antifungal agent in ethanol was diluted with DST agar (pH 6.5) or Emmon's Sabouraud dextrose agar to obtain concentrations between 10 and 0.01 mcg/ml, or 80 and 0.16 mcg/m, respectively. The inoculum was standarized in order 1×10^5 cfu/ml, and 10 mcl of each organism was seeded into the agar surface. Incubation was then allowed at 30° C. during 3 days (DST) or 2 days (Emmon's) for yeasts and 10 days for filamentous fungi. Following incubation, the zones of inhibition were measured and compared to an inoculated, drug-free control to yield the MIC value.
# [11] = tested on: T. mentagrophytes ATCC 9972; experiment: In vitro antifungal activity (MIC), agar dilution; details: Trichophyton mentagrophytes, read-out: MIC
# Method: as §2
# [12] = tested on: C. albicans serotipo B; experiment: In vitro antifungal activity (MIC), agar dilution; details: Candida albicans, read-out: MIC
# Method: as §2
# [13] = tested on: T. mentagrophytes (clinica) (4); experiment: In vitro antifungal activity (MIC), agar dilution; details: Trichophyton mentagrophytes, read-out: MIC
# Method: as §2
# [14] = tested on: Aspergillus flavus; experiment: In vitro antifungal activity (MIC), agar dilution
# Method: as §2
# [15] = tested on: T. mentagrophytes (clinica) (3); experiment: In vitro antifungal activity (MIC), agar dilution; details: Trichophyton mentagrophytes, read-out: MIC
# Method: as §2
# [16] = tested on: T. mentagrophytes ATCC 9129; experiment: In vitro antifungal activity (MIC), agar dilution; details: Trichophyton mentagrophytes, read-out: MIC
# Method: as §2
# [17] = tested on: T. mentagrophytes (clinica) (1); experiment: In vitro antifungal activity (MIC), agar dilution; details: Trichophyton mentagrophytes, read-out: MIC
# Method: as §2
# [18] = tested on: C. albicans ATCC 10231; experiment: In vitro antifungal activity (MIC), agar dilution; details: Candida albicans, read-out: MIC
# Method: as §2
# [19] = tested on: C. albicans ATCC 28516; experiment: In vitro antifungal activity (MIC), agar dilution; details: Candida albicans, read-out: MIC
# Method: as §2
# [20] = tested on: Microsporum audouini ATCC 9079; experiment: In vitro antifungal activity (MIC), agar dilution
# Method: as §2
# [21] = tested on: Rhodotorula rubra; experiment: In vitro antifungal activity (MIC), agar dilution
# Method: as §2
# [22] = tested on: C. guilliermondii (clinica); experiment: In vitro antifungal activity (MIC), agar dilution
# Method: as §2
# [23] = tested on: Aspergillus niger; experiment: In vitro antifungal activity (MIC), agar dilution
# Method: as §2
# [24] = tested on: C. guilliermondii SQ 2210; experiment: In vitro antifungal activity (MIC), agar dilution; details: Meyerozyma guilliermondii, read-out: MIC
# Method: as §2
# [25] = Emmon's Sabouraud dextrose agar
compound,measurement,setting,value
"Fc1ccc(C(c2ccccc2)(c2ccccc2F)n2ccnc2)cc1 (stereo not shown) [UR-4056, 1-[(2-fluorophenyl) (4-fluorophenyl)phenylmethyl]-1H-imidazole]",MIC Distribution (number of strains),[1]; MIC 0.15,1 # of strains
same,MIC Distribution (number of strains),[1]; MIC 0.3,2 # of strains
same,MIC Distribution (number of strains),[1]; MIC 0.6,11 # of strains
same,MIC Distribution (number of strains),[1]; MIC column 1.2,3 # of strains
same,MIC Distribution (number of strains),[2]; MIC 0.3,4 # of strains
same,MIC Distribution (number of strains),[2]; MIC 2.5,4 # of strains
same,MIC Distribution (number of strains),[2]; MIC column 1.2,5 # of strains
same,MIC Distribution (number of strains),[3]; MIC 0.15,4 # of strains
same,MIC Distribution (number of strains),[3]; MIC 2.5,1 # of strains
same,MIC Distribution (number of strains),[3]; MIC column 1.2,1 # of strains
same,MIC Distribution (number of strains),[4]; MIC 0.3,1 # of strains
same,MIC Distribution (number of strains),[4]; MIC 0.6,2 # of strains
same,MIC Distribution (number of strains),[4]; MIC column 1.2,2 # of strains
same,MIC Distribution (number of strains),[5]; MIC 0.3,1 # of strains
same,MIC Distribution (number of strains),[5]; MIC 2.5,2 # of strains
same,MIC Distribution (number of strains),[5]; MIC column 1.2,1 # of strains
same,MIC Distribution (number of strains),[5]; MIC column 40 (first),1 # of strains
same,MIC Distribution (number of strains),[6]; MIC 0.3,1 # of strains
same,MIC Distribution (number of strains),[6]; MIC 2.5,11 # of strains
same,MIC Distribution (number of strains),[6]; MIC 5.0,31 # of strains
same,MIC Distribution (number of strains),[6]; MIC column 1.2,2 # of strains
same,MIC Distribution (number of strains),[6]; MIC column 10,5 # of strains
same,MIC Distribution (number of strains),[7]; MIC 0.6,1 # of strains
same,MIC Distribution (number of strains),[7]; MIC 2.5,1 # of strains
same,MIC Distribution (number of strains),[7]; MIC 5.0,2 # of strains
same,MIC Distribution (number of strains),[7]; MIC column 10,4 # of strains
same,MIC Distribution (number of strains),[7]; MIC column 20,1 # of strains
same,MIC Distribution (number of strains),[7]; MIC column 40 (first),1 # of strains
same,MIC Distribution (number of strains),[8]; MIC 0.6,1 # of strains
same,MIC Distribution (number of strains),[8]; MIC 2.5,4 # of strains
same,MIC Distribution (number of strains),[8]; MIC 5.0,13 # of strains
same,MIC Distribution (number of strains),[8]; MIC column 0.078,1 # of strains
same,MIC Distribution (number of strains),[8]; MIC column 1.2,3 # of strains
same,MIC Distribution (number of strains),[8]; MIC column 10,8 # of strains
same,MIC Distribution (number of strains),[9]; MIC 0.038,2 # of strains
same,MIC Distribution (number of strains),[9]; MIC 0.15,1 # of strains
same,MIC Distribution (number of strains),[9]; MIC 0.3,2 # of strains
same,MIC Distribution (number of strains),[9]; MIC 0.6,2 # of strains
same,MIC Distribution (number of strains),[9]; MIC column 1.2,1 # of strains
same,MIC Distribution (number of strains),[9]; MIC column 10,2 # of strains
same,MIC,[10]; DST agar,0.05 mg/L
same,MIC,[10]; [25],0.31 mg/L
same,MIC,"[11]; ATCC9972, DST agar",0.25 mg/L
same,MIC,"[11]; ATCC9972, Emmon's Sabouraud dextrose agar",1.25 mg/L
same,MIC,[12]; DST agar,0.5 mg/L
same,MIC,[12]; [25],0.31 mg/L
same,MIC,[13]; DST agar,0.1 mg/L
same,MIC,[13]; [25],1.25 mg/L
same,MIC,[14]; DST agar,1 mg/L
same,MIC,[14]; [25],2.5 mg/L
same,MIC,[15]; DST agar,0.25 mg/L
same,MIC,[15]; [25],0.16 mg/L
same,MIC,"[16]; ATCC9129, DST agar",0.05 mg/L
same,MIC,"[16]; ATCC9129, Emmon's Sabouraud dextrose agar",0.31 mg/L
same,MIC,[17]; DST agar,0.1 mg/L
same,MIC,[17]; [25],1.25 mg/L
same,MIC,"[18]; ATCC10231, DST agar",1 mg/L
same,MIC,"[18]; ATCC10231, Emmon's Sabouraud dextrose agar",0.04 mg/L
same,MIC,"[19]; ATCC28516, DST agar",0.5 mg/L
same,MIC,"[19]; ATCC28516, Emmon's Sabouraud dextrose agar",0.04 mg/L
same,MIC,"[20]; ATCC9079, DST agar",0.05 mg/L
same,MIC,"[20]; ATCC9079, Emmon's Sabouraud dextrose agar",0.63 mg/L
same,MIC,[21]; DST agar,0.1 mg/L
same,MIC,[21]; [25],0.08 mg/L
same,MIC,[22]; [25],5.00 mg/L
same,MIC,"[22]; Meyerozyma guilliermondii, DST agar, read-out: MIC",5 mg/L
same,MIC,[23]; DST agar,0.25 mg/L
same,MIC,[23]; [25],2.5 mg/L
same,MIC,"[24]; SQ2210, DST agar",1 mg/L
same,MIC,"[24]; SQ2210, Emmon's Sabouraud dextrose agar",0.16 mg/L

# Reference: patent US5149707A, “1-((2-fluorophenyl)(4-fluorophenyl)phenylmethyl)-1H-imidazole useful as antifungal agent” (J. Uriach & Cia, S.A., priority 1988, dated 1992)
